Experimental data: PubChem BioAssay AID1645867 (Buhrlage Lab, Dana-Farber Cancer Institute and Novartis …, 2021)
Activity calls are given as the source filed them. No rule for the calls is given here.

Target: Ubiquitin carboxyl-terminal hydrolase isozyme L1 (Homo sapiens) (UniProt P09936)
Experiment: biochemical concentration-response of UCH-L1 DUB inhibitors, hit verification (AID 1645867)
Details: recombinant UCHL1 deubiquitinase activity assay

Ubiquitin carboxyl-terminal hydrolase isozyme L1 (Homo sapiens), sequence (P09936 whole entry, looked up): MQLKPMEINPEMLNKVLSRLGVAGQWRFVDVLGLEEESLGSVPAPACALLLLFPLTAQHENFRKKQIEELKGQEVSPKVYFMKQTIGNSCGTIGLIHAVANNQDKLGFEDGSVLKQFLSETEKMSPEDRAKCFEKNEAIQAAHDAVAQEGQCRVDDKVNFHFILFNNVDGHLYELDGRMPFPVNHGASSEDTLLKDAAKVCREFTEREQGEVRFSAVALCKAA

In the case of `Cc1c(Cl)ccc2sc(N3CCN(C(=O)c4ccn(C)n4)CC3)nc12`, the IC50 is reported as > 25 µM (inactive).

In the case of `O=C(COc1ccc(N2CC(C(=O)NCc3ccc4c(c3)OCO4)CC2=O)cc1)Nc1ccc(Cl)cc1` (configuration not stated), the IC50 is reported as > 25 µM (inactive).

With `O=C(Nc1cccc(-c2nc3cnccc3o2)c1)c1ccc(Br)o1` the IC50 was > 25 µM (inactive).

`O=c1c(O)c(-c2ccc(O)c(O)c2)oc2cc(O)cc(O)c12` was tested, and the IC50 was 2.32 µM.

With `CCCC1(c2ccccc2)NC(=O)N(Cc2ccc(Cl)cc2)C1=O` (configuration not stated) the IC50 was > 25 µM (inactive).

`C=C/C(C)=C/[C@@]1(C)SC(=O)C(C)=C1O` was tested, and the IC50 was 5.87 µM.

`c1ccc(-c2ccc(NCc3ccc4c(c3)OCO4)nn2)cc1` was tested, and the IC50 was > 25 µM (inactive).

`CC(C)C(=O)Nc1nc2cc(NS(=O)(=O)c3ccccc3)ccc2s1` was tested, and the IC50 was > 25 µM (inactive).

With `COc1ccc2c(C)c(CC(=O)N3CCC[C@H]3C(=O)O)c(=O)oc2c1C` the IC50 was > 25 µM (inactive).

For `CC(=O)NS(=O)(=O)c1ccc(NC(=O)/C=C/c2cn(-c3ccccc3)nc2-c2ccccc2)cc1`, the IC50 was > 25 µM (inactive).

In the case of `COc1ccc(-c2cnn(-c3ccc(NC(=O)Nc4cccc(C(F)(F)F)c4)cc3)c2)cc1`, the IC50 is reported as > 25 µM (inactive).

`O=C(Cn1cccc(-c2nc(-c3ccccc3)no2)c1=O)Nc1ccccc1F` was tested, and the IC50 was > 25 µM (inactive).

In the case of `O=c1c2cc(-c3ccccc3)nn2ccn1Cc1noc(CN2CCCCC2)n1`, the IC50 is reported as > 25 µM (inactive).

In the case of `Cc1cc(C)n2nc(Cc3ccccc3)nc2n1`, the IC50 is reported as > 25 µM (inactive).

Work on `CC(C)=CCC(O)C1=CC(=O)c2c(O)ccc(O)c2C1=O` (configuration not stated) yielded an IC50 of 3.09 µM.

`Cc1nn(-c2ccccc2)c2c1N=C1C(Cl)=CC(Cl)=CN1C21C(=O)Nc2ccccc21` (configuration not stated) showed an IC50 of 3.72 µM.

For `COC(=O)Nc1cccn(Cc2c(Cl)cccc2Cl)c1=O`, the IC50 was > 25 µM (inactive).

`CCC(=O)N1CCCC1c1nc2ccccc2n1Cc1ccc(F)cc1` (configuration not stated) was tested, and the IC50 was > 25 µM (inactive).

In the case of `Cc1ccc(NC(=O)Nc2ccc(C)n(CC(=O)Nc3ccc(C)c(C)c3)c2=O)cc1`, the IC50 is reported as > 25 µM (inactive).

`COc1cc(Cl)c(NC(=O)c2cc(-c3ccccn3)n[nH]2)c(OC)c1` was tested, and the IC50 was > 25 µM (inactive).

`Cn1c(CNS(=O)(=O)c2ccc(Br)cc2)nnc1SCc1ccc(Cl)c(Cl)c1` was tested, and the IC50 was > 25 µM (inactive).

`CN(C)[C@@H]1C(=O)C(C(N)=O)=C(O)[C@@]2(O)C(=O)C3=C(O)c4c(O)cccc4[C@@](C)(O)[C@H]3C[C@@H]12` was tested, and the IC50 was > 25 µM (inactive).

With `Cc1ccc(NC(=O)Nc2ccc(C)n(CC(=O)Nc3ccc(C)cc3C)c2=O)cc1` the IC50 was > 25 µM (inactive).

In the case of `C=Cc1cc(OC)c2c(c1)c(=O)oc1c2cc(OC)c2c(O)ccc([C@H]3OC(C)[C@@H](OC(C)=O)C(N(C)C)C3O)c21` (some centres not stated), the IC50 is reported as > 25 µM (inactive).

For `CO/C1=C\C(C)=C\[C@@H](C)[C@@H](O)[C@H](C)C/C(C)=C/C=C/[C@H](OC)[C@@H]([C@@H](C)[C@@H](O)[C@H](C)[C@@]2(O)C[C@@H](OC(=O)/C=C/C(=O)NC3=C(O)CCC3=O)[C@H](C)[C@@H](C(C)C)O2)OC1=O`, the IC50 was > 25 µM (inactive).

In the case of `N#Cc1ccc(NC(=O)Nc2cccn(Cc3ccccc3Br)c2=O)cc1`, the IC50 is reported as > 25 µM (inactive).

`O=C(CSc1nc2cc(C(F)(F)F)ccc2s1)NCC(=O)c1ccccc1` was tested, and the IC50 was > 25 µM (inactive).

`O=C(Nc1ccc(F)cc1)N1C[C@@H]2c3nccn3-c3ccccc3[C@@H]2C1` was tested, and the IC50 was > 25 µM (inactive).

With `Cc1ccc2[nH]c3c(=O)n(Cc4ccc(N(C)C)cc4)cnc3c2c1` the IC50 was > 25 µM (inactive).

In the case of `O=C(Nc1ccccc1-c1nc2ccccc2[nH]1)c1sc2ccccc2c1Cl`, the IC50 is reported as > 25 µM (inactive).

For `CCOc1ccccc1NC(=O)Cn1c(=O)n(CCCC(=O)NCc2ccc(C)cc2)c(=O)c2sccc21`, the IC50 was > 25 µM (inactive).

In the case of `Cn1nc(Cl)c(Cl)c1Oc1ccc(S(=O)(=O)Nc2ccc(Oc3ccc(C(F)(F)F)cn3)c(Cl)c2)cc1`, the IC50 is reported as > 25 µM (inactive).

In the case of `CCC1OC(O)(C(C)C(O)C(C)C2OC(=O)/C(C)=C/C(C)=CC(C)C(O)C(C)C/C(C)=C/C=C/C2OC)CC(OC(=O)/C=C/C(=O)NC2=C(O)CCC2=O)C1C` (configuration not stated), the IC50 is reported as > 25 µM (inactive).

In the case of `O=C(CS(=O)(=O)c1ccc(F)cc1)Nc1ccc(-c2nc3ccccc3s2)c(O)c1`, the IC50 is reported as > 25 µM (inactive).

For `O=C(NCc1ccco1)c1ccc(Cn2c(SCc3ccccc3)nc3ccncc32)cc1`, the IC50 was > 25 µM (inactive).

For `COc1cccc(C(CC(=O)Nc2ccc3c(c2)OCCO3)n2cccc2)c1` (configuration not stated), the IC50 was > 25 µM (inactive).

In the case of `O=c1c2cnc(N3CCCCC3)nc2ccn1CCc1ccccc1`, the IC50 is reported as > 25 µM (inactive).

`O=c1c(S(=O)(=O)c2cc(F)cc(F)c2)c[nH]c2cc(Cl)ccc12` was tested, and the IC50 was > 25 µM (inactive).

For `CNc1nc2c(c(=O)n1C)CN(C(=O)Nc1cccc3ccccc13)CC2`, the IC50 was > 25 µM (inactive).

For `Cc1ccc(NCc2cc3c(-c4cccc(F)c4)nn(-c4ccccc4)c3[nH]c2=O)cc1C`, the IC50 was 21.6 µM.

For `N#C/C(=C\c1ccc(OCc2cccc(C(=O)O)c2)cc1)c1ccc(F)cc1`, the IC50 was > 25 µM (inactive).

For `Cn1cc(NC(=O)Nc2cccc(C(F)(F)F)c2)c2ccccc2c1=O`, the IC50 was > 25 µM (inactive).

For `O=C(C1CCCCC1)N1CCC(c2nc3c(nnn3Cc3cccc(F)c3)c(=O)[nH]2)CC1`, the IC50 was > 25 µM (inactive).

In the case of `COc1ccc(CCN2COc3c(cc(Cl)c4cccnc34)C2)cc1OC`, the IC50 is reported as > 25 µM (inactive).

In the case of `Cc1ccc(-n2ccn3c(CCC(=O)NCc4ccc(F)cc4)nnc3c2=O)cc1C`, the IC50 is reported as > 25 µM (inactive).

In the case of `FC(F)(F)c1ccc(Nc2nnnc3ccccc23)cc1`, the IC50 is reported as > 25 µM (inactive).

For `COc1cccc(C(=O)N2CCc3nc(-c4ccc(F)cc4)ncc3C2)c1`, the IC50 was > 25 µM (inactive).

In the case of `N#CCCN(C(=O)c1cc2c(s1)-c1ccccc1OC2)c1ccccc1`, the IC50 is reported as > 25 µM (inactive).

With `COc1ccc(CNC(=O)CCCc2nnc3c(=O)n(-c4cc(C)cc(C)c4)ccn23)cc1` the IC50 was > 25 µM (inactive).

`C/C=C/C=C/[C@@H]1Cc2cc(O)cc(O)c2O1` gave an IC50 of 10.9 µM.

Molecule `CC1OC2CC(O)C1(O)C1=C2C(O)=C(C(N)=O)C(=N)C1=O` (configuration not stated) has an IC50 of 11.6 µM.

`O=C(C1CCCC1)N1CCC(c2nc3c(nnn3Cc3ccccc3Cl)c(=O)[nH]2)CC1` was tested, and the IC50 was > 25 µM (inactive).

In the case of `O=C(NCCc1nc2ccccc2n1Cc1ccccc1F)c1ccco1`, the IC50 is reported as > 25 µM (inactive).

In the case of `O=C(Nc1nc2c(s1)CN(C(=O)c1cc(-c3ccco3)on1)CC2)C1CCCO1` (configuration not stated), the IC50 is reported as > 25 µM (inactive).

With `COc1cc(OC)cc(N2C(=O)N(CC(=O)c3ccc(Br)cc3)c3ccccc3S2(=O)=O)c1` the IC50 was > 25 µM (inactive).

For `COc1ccc(-c2noc(CN3CCCC3c3cnn(C)c3)n2)cc1` (configuration not stated), the IC50 was > 25 µM (inactive).

`O=C1CC(c2nc3ccccc3n2CCOc2ccccc2)CN1Cc1ccccc1` (configuration not stated) was tested, and the IC50 was > 25 µM (inactive).

In the case of `COCCNC(=O)c1cc(-c2ccn(C3CCCC3)n2)n2ccccc12`, the IC50 is reported as > 25 µM (inactive).

`COc1ccc(CNC(=O)Nc2cccc3ccccc23)cc1` was tested, and the IC50 was > 25 µM (inactive).

With `Cc1oncc1C(=O)N1CC[C@H]2CO[C@H](CN3CCOCC3)[C@H]2C1` the IC50 was > 25 µM (inactive).

For `CC(NC(=O)c1ccccc1)c1nc2ccccc2n1CC(=O)Nc1ccc2c(c1)OCO2` (configuration not stated), the IC50 was > 25 µM (inactive).

`O=C(Cc1c[nH]c2ccccc12)N1CCc2cc(-c3ccno3)ccc21` was tested, and the IC50 was > 25 µM (inactive).

With `Cc1ccc(C2CC(=O)c3cnc(NCC4CCCO4)nc3C2)cc1` (configuration not stated) the IC50 was > 25 µM (inactive).

With `Cc1cc(NC(=O)c2cc(-c3cccnc3)n[nH]2)ccc1Br` the IC50 was > 25 µM (inactive).

With `C=C1CCC2[C@](C)(CCC[C@]2(C)C(=O)OC)[C@H]1CCc1ccoc1/C=C/C(=O)O` (some centres not stated) the IC50 was > 25 µM (inactive).

With `O=C1CC(c2ccc(F)cc2)CC2=C1C(c1cccc([N+](=O)[O-])c1)Nc1ccccc1N2` (configuration not stated) the IC50 was > 25 µM (inactive).

`COc1cc(C2CC(=O)Nc3nc(-c4ccccc4)[nH]c(=O)c32)cc(OC)c1O` (configuration not stated) was tested, and the IC50 was > 25 µM (inactive).

With `CC(=O)O[C@@H]1C(=O)C2=C(C(=O)C[C@H]3C(C)(C)C(=O)CC[C@]23C)[C@]2(C)C(=O)C[C@H]([C@H](C)CC(=O)C[C@@H](C)C(=O)O)[C@@]12C` the IC50 was > 25 µM (inactive).

`O=C(O)c1ccc(Cl)c(NC(=O)C2COc3ccccc3O2)c1` (configuration not stated) was tested, and the IC50 was > 25 µM (inactive).

For `COc1ccc(NC(=O)Cn2cc(C(=O)c3ccc(Cl)cc3)c(=O)c3cc(F)ccc32)cc1`, the IC50 was > 25 µM (inactive).

`CCCc1ccc(C(=O)[C@@H]2[C@@H](C(=O)c3cccs3)N3c4ccc(C)cc4C(C)=C[C@@H]3[C@@]23C(=O)Nc2ccccc23)cc1` was tested, and the IC50 was > 25 µM (inactive).

`COc1ccc(Nc2nnc(Cc3ccc(Cl)cc3)c(=O)[nH]2)cc1` was tested, and the IC50 was > 25 µM (inactive).

For `O=c1oc2ccccc2cc1-c1nc(-c2ccc(Oc3ccccc3)cc2)cs1`, the IC50 was > 25 µM (inactive).

`CCOc1ccc(NC(=O)Cn2c(=O)n(CCCCCC(=O)NCc3ccc(F)cc3)c(=O)c3sccc32)cc1` was tested, and the IC50 was > 25 µM (inactive).

`O=C(Cn1nnc2ccccc21)Nc1nc(-c2ccc3c(c2)CCN3C(=O)c2ccccc2F)cs1` was tested, and the IC50 was > 25 µM (inactive).

In the case of `O=C(NCC(O)c1ccc([N+](=O)[O-])cc1)c1cccc(S(=O)(=O)N2CCOCC2)c1` (configuration not stated), the IC50 is reported as > 25 µM (inactive).

With `CSc1cccc(NC(=O)C2C3C=CC4(O3)C2C(=O)N(C2CCCCCC2)C4C(=O)NC2CCCCC2)c1` (configuration not stated) the IC50 was > 25 µM (inactive).

In the case of `Cc1oc2cc3oc(=O)c(CCC(=O)N4CC[C@@]5(O)CCCC[C@H]5C4)c(C)c3cc2c1C`, the IC50 is reported as > 25 µM (inactive).

For `CCOc1ccc(CC(=O)Nc2ccc(-c3cn4cccnc4n3)cc2)cc1`, the IC50 was > 25 µM (inactive).

For `COc1cccc(-n2cnc3cc(C(=O)NCCc4ccccc4)ccc3c2=O)c1`, the IC50 was > 25 µM (inactive).

In the case of `Cc1ccc(C(=O)N[C@@H](Cc2ccccc2)C(=O)N2CCC3(CC2)NCCc2[nH]cnc23)cc1C`, the IC50 is reported as > 25 µM (inactive).

In the case of `O=C(CSc1nnc(-c2cccnc2)n1-c1ccccc1)c1cccc([N+](=O)[O-])c1`, the IC50 is reported as > 25 µM (inactive).

In the case of `CC(C)(C)n1nc2c(c1NC(=O)Cc1ccccc1)CSC2`, the IC50 is reported as > 25 µM (inactive).

`Cc1ccc(C2CC(=O)C3=C(C2)Nc2ccccc2N(C(=O)c2ccccc2)C3c2ccccc2)cc1` (configuration not stated) was tested, and the IC50 was > 25 µM (inactive).

With `O=C1CC2(C(=O)N(Cc3ccc(Cl)cc3)c3ccccc32)c2cn[nH]c2N1` (configuration not stated) the IC50 was > 25 µM (inactive).

With `COc1cccc(CNc2ccc(-c3nc(-c4ccccc4)no3)nn2)c1` the IC50 was > 25 µM (inactive).

`CC(OC(=O)c1cccc(N(C)C)c1)C(=O)Nc1ncc(Cl)cc1Cl` (configuration not stated) was tested, and the IC50 was > 25 µM (inactive).
